Laboratory results published in patent publication US4939256A, “Novel platinum complex, antineoplastic agent containing the same, and intermediate therefor” (Kanebo Ltd., priority 1988, dated 1990).

Columns and labels:
[1] = system: Leukemia P388; experiment: Experiment 1: Test of antitumor activity (increase in life span of tumor-bearing mice); type: in vivo, BDF1 male mice; conditions: intraperitoneal, P388 in BDF1 mice; for Increase in life span (ILS %): observed until 30th day
Method: (a) Animals: BDF1 male mice (6 week age, weighing 22 to 25 g, 4 animals per each group)
(b) Tumor cells: Leukemia P388
Tumor cells (1×10^6 per mouse) were intraperitoneally inoculated into mice. After 24 hours, a solution of each test compound in physiological saline solution was intraperitoneally administered to the mice. In control mice, only physiological saline solution was intraperitoneally administered.
Survival days of the mice was observed until 30th day after the inoculation of tumor cells. Mean survival days (X) in the mice administered with test compound and mean survival days (Y) in the control mice were measured, and the increase in life span (ILS %) was calculated by the following equation: [formula]

[2] = system: kidney; experiment: Experiment 3: Side effect on kidney (blood urea nitrogen value); type: in vivo, BDF1 male mice; conditions: intraperitoneal, 4th day after administration, versus control mice
Method: It was studied in the blood urea nitrogen value (BUN value) as an index.
(§1) (a) Animal: BDF1 male mice (6 week age, weighing 22-25 g, 5 animals per each group)
Each test compound was dissolved in a physiological saline solution, and the solution (0.1 ml/10 g body weight) was intraperitoneally administered. In the control mice, only the physiological saline solution (0.1 ml/10 g body weight) was intraperitoneally administered. On the 4th day after the administration, the test compound-administered mice and the control mice were bleeded from the femoral artery, and the collected blood was centrifuged at 3,000 r.p.m. at 4° C. for 15 minutes to give a test serum. BUN value in the test serum was measured by a urease indophenol method using a kit for measuring urea nitrogen (Urea NB-Test Wako, manufactured by Wako Pure Chemical Industries, Ltd.). That is, the above test serum (20 μl) was taken in a test tube and thereto was added color reagent A [a mixture of a urease solution (one part by volume) and phosphate buffer (pH 7.0, 20 parts by volume), 2.0 ml], and the mixture was mixed well and incubated at 37° C. for 15 minutes. […]
The absorbance of the standard solution and test solution was measured at 570 nm with a spectrophotometer with reference to the blank solution as a control, and BUN value in the test serum was calculated by the following equation: [formula] […]

[3] = prior art, clinically used; cited from earlier work
[4] = system: Cisplatin-resistant L1210 cells (L1210/DDP) and L1210 cells; experiment: Experiment 2: Effects on cisplatin-resistant tumor cells (growth inhibition, resistance index); type: cell-based; conditions: L1210/DDP versus L1210, from IC50 after 48 hours; for Resistance index, maximum: maximum of 2 to 4 tests; for Resistance index, Mean: mean of 2 to 4 tests; for Resistance index, minimum: minimum of 2 to 4 tests
Method: 2. Cisplatin-resistant L1210 cells (hereinafter, referred to as L1210/DDP), which is available from Cancer Chemotherapy Center, Japanese Foundation for Cancer Research
RPMI-1640 medium containing 10% (v/v) fetal bovine serum, which was prepared as follows:
RPMI-1640 (manufactured by GIBCO) (10.4 g), sodium hydrogen carbonate (1.3 g), streptomycin sulfate ([…]), penicillin G potassium ([…]) and a 1% aqueous solution of β-mercaptoethanol (40 μl) were dissolved in distilled water (one liter). To this mixture (90 parts by volume) was added fetal bovine serum (manufactured by GIBCO) (10 parts by volume) to give RPMI-1640 medium containing 10% (v/v) fetal bovine serum (hereinafter, referred to as "serum-containing RPMI-1640 medium").
L1210 cells or L1210/DDP cells were added to the serum-containing RPMI-1640 medium to prepare a cell suspension (3×10^5 cells/ml). The cell suspension (each 1 ml) was seeded onto a microplate (Falcon 3047, manufactured by Falcon) and cultivated in air containing 5% CO2 gas at 37° C. (one group, 3 wells). After cultivating for 24 hours, a solution of each test compound (1 ml) (which was prepared by dissolving each test compound in the serum-containing RPMI-1640 medium in various concentrations) was added to the medium, and the mixture was cultivated under the same conditions for 48 hours. After the cultivation, the number of viable cells was counted by Trypan Blue exclusion test method, and the mean number of viable cells in each group was calculated. Besides, in the control group, the above was repeated by using the serum-containing RPMI-1640 medium instead of the solution of test compound, and the mean number of viable cells in the control group was calculated likewise. From the mean number of viable cells in various concentration of test compound and the mean number of viable cells in the control group, the concentration required for 50% inhibition of growth (IC50) was calculated by probit method. Then, the resistance index of test compound was calculated by the following equation: [formula]
The above test was repeated for 2 to 4 times, and the mean resistance index was obtained.

[5] = system: BDF1 male mice; experiment: Experiment 4: Acute toxicity (LD50); type: in vivo; conditions: intraperitoneal, until 14th day, Weil method
Method: as §1
Each test compound was dissolved or suspended in a physiological saline solution, and the solution or suspension (0.1 ml/10 g body weight) was intraperitoneally administered to mice. The number of mice that died was counted until 14th day after administration of test compound, and the acute toxicity (LD50) was calculated by Weil method.

Molecule	Increase in life span (ILS %) ([1]; 25 mg/kg)	Increase in life span (ILS %) ([1]; 50 mg/kg)	Increase in life span (ILS %) ([1]; 100 mg/kg)	dose showing maximum increase in life span in Experiment 1 [1]	further results
O=C1C[O][Pt]2([NH]C3CC[N]2C3)[O]1 (racemic) [Platinum complex A-2, α-glycolato-(3RS)-3-aminopyrrolidine platinum (II)]	108%	172%	115%	50 mg/kg	–
N.N.[Cl][Pt][Cl] [Cisplatin, cisdiamminedichloroplatinum (II), reference compound]	–	–	–	10 mg/kg	Increase in life span (ILS %) ([1]; 5 mg/kg): 108%; Increase in life span (ILS %) ([1]; 10 mg/kg): 167%; Increase in life span (ILS %) ([1]; 20 mg/kg): -11%; Rate of change of BUN value (%) ([2]; 10 mg/kg): +106%; Rate of change of BUN value (%) ([2]; 15 mg/kg): +128%; antineoplastic activity, in words [3]: excellent antineoplastic activity
a mixture of α-glycolato-(3RS)-3-aminopiperidine platinum (II) (Isomer b-1) and β-glycolato-(3RS)-3-aminopiperidine platinum (II) (Isomer b-2) [Platinum complex B-1]	131%	174%	-45%	50 mg/kg	Resistance index, maximum [4]: 5.4; Resistance index, Mean [4]: 4.3; Resistance index, minimum [4]: 3.2; LD50 [5]: 57.0 mg/kg
a mixture of α-glycolato-(3RS)-3-aminopyrrolidine platinum (II) (Isomer a-1) and β-glycolato-(3RS)-3-aminopyrrolidine platinum (II) (Isomer a-2) [Platinum complex A-1]	74%	167%	-43%	50 mg/kg	–
a mixture of α-glycolato-(3RS)-3-aminopyrrolidine platinum (II) (Isomer a-1) and β-glycolato-(3RS)-3-aminopyrrolidine platinum (II) (Isomer a-2) [Platinum complex A-3]	111%	170%	26%	50 mg/kg	Resistance index, maximum ([4]; 2880 min): 4.6; Resistance index, Mean ([4]; 2880 min): 4.6; Resistance index, minimum ([4]; 2880 min): 4.6; LD50 ([5]; 20160 min): 107.0 mg/kg
